According to US9458414B2, “Cleaning, surfactant, and personal care compositions” (SEGETIS, INC., priority 2012, dated 2016):
Blank lines part the entries; values can stand above or below the compound they belong to.

Tests used:
[1] = Hard surface cleaning formulation heat cloud point testing; type: physicochemical; conditions: Example 5 formulation containing the solvent; for Cloud point: heated while mixing
Procedure: Formulations as in Example 5 were prepared by combining ingredients and mixing until homogeneous.

[2] = Coupling of water and octanoic acid by hydrotropes (amount producing a single phase); type: physicochemical
Procedure: Hydrotropes were added to a two-component mixture of octanoic acid and deionized (DI) water to find the amount that produced a single phase from the two separate phases of water and octanoic acid.
The percent hydrotrope required to compatibilize phases (and the resulting percent octanoic acid) were calculated and the results are shown in Table 4 as well as FIG. 1.

[3] = Hard surface cleaning formulation freeze-thaw testing; type: physicochemical; conditions: for Freeze-thaw visual observation: Example 5 formulation containing the solvent, 0° C. freezer >12 hours, thaw to room temperature
Procedure: Formulations as in Example 5 were prepared by combining ingredients and mixing until homogeneous. Freeze-thaw testing was performed over 3 cycles. Each cycle was putting the formulations into a 0° C. freezer for greater than 12 hours, then taking them out and allowing the samples to thaw to room temperature and then making the visual observation.

[4] = Coupling of water and castor oil by hydrotropes; type: physicochemical
[5] = Coupling of water and soy methyl ester by hydrotropes; type: physicochemical
Procedure: Hydrotropes were added to a two-component mixture of soy methyl ester and DI water to find the amount that produced a single phase from the two separate phases of water and soy methyl ester. The percent hydrotrope required to compatibilize the phases was calculated.

[6] = Hard surface cleaning formulation pH testing over 7 days; type: physicochemical; conditions: 5 g solvent per 100 g
Procedure: Formulations were prepared by combining ingredients and mixing until homogeneous. Next, pH measurements were taken over 7 days.

[7] = Hair dye active solubility testing
Procedure: Two component mixtures using ketal alcohol (1a) and the actives shown in Table 13 were prepared by mixing the components at various proportions in a vial at room temperature and then heating in a lab oven at 80° C. for 10 minutes and then shaking.
Comparative formulations using EtLGK and ketal alcohol (1a) are shown below in Tables 14 and 15.

[8] = ratio of water:octanoic acid 10:90
[9] = ratio of water:octanoic acid 30:70
[10] = ratio of water:octanoic acid 50:50
[11] = ratio of water:octanoic acid 70:30
[12] = ratio of water:octanoic acid 90:10
[13] = water:octanoic acid 10:90 (DI water 0.5 g, octanoic acid 4.5 g)
[14] = water:octanoic acid 30:70 (DI water 1.5 g, octanoic acid 3.5 g)
[15] = water:octanoic acid 50:50 (DI water 5.0 g, octanoic acid 5.0 g)
[16] = water:octanoic acid 70:30 (DI water 3.5 g, octanoic acid 1.5 g)
[17] = water:octanoic acid 90:10 (DI water 4.5 g, octanoic acid 0.5 g)
[18] = ratio of water to castor oil 10:90
[19] = ratio of water to castor oil 30:70
[20] = ratio of water to castor oil 50:50
[21] = ratio of water to castor oil 70:30
[22] = ratio of water to castor oil 90:10
[23] = ratio of water:soy methyl esters 10:90
[24] = ratio of water:soy methyl esters 30:70
[25] = ratio of water:soy methyl esters 50:50
[26] = ratio of water:soy methyl esters 70:30
[27] = ratio of water:soy methyl esters 90:10
[28] = all ratios 10:90 to 90:10, measured levels up to >95%

Compound: CCCCOCCO [2-butoxyethanol]
Cloud point [1]: 44 °C
Cloud point ([1]; listed as Butyl Cellosolve): 44 °C
Wt % Hydrotrope required to compatibilize phases [2, 8]: 33%
Wt % Octanoic Acid (resulting, at compatibilization) [2, 8]: 60%
Wt % Hydrotrope required to compatibilize phases [2, 9]: 52%
Wt % Octanoic Acid (resulting, at compatibilization) [2, 9]: 34%
Wt % Hydrotrope required to compatibilize phases [2, 10]: 57%
Wt % Octanoic Acid (resulting, at compatibilization) [2, 10]: 21%
Wt % Hydrotrope required to compatibilize phases [2, 11]: 61%
Wt % Octanoic Acid (resulting, at compatibilization) [2, 11]: 12%
Wt % Hydrotrope required to compatibilize phases [2, 12]: 52%
Wt % Octanoic Acid (resulting, at compatibilization) [2, 12]: 5%
Amount of hydrotrope that produced a single phase [2, 13]: 2.47 grams
Amount of hydrotrope that produced a single phase [2, 14]: 5.39 grams
Amount of hydrotrope that produced a single phase [2, 15]: 6.74 grams
Amount of hydrotrope that produced a single phase [2, 16]: 7.9 grams
Amount of hydrotrope that produced a single phase [2, 17]: 5.43 grams
Freeze-thaw visual observation ([3]; Cycle 1): separation;
Freeze-thaw visual observation ([3]; Cycle 2): separation;
Freeze-thaw visual observation ([3]; Cycle 3): two phases;

Wt % Castor oil (at compatibilization) [4, 18]: 32%
Wt % Hydrotrope required to compatibilize phases [4, 18]: 64%
Wt % Castor oil (at compatibilization) [4, 19]: 21%
Wt % Hydrotrope required to compatibilize phases [4, 19]: 71%
Wt % Castor oil (at compatibilization) [4, 20]: 11%
Wt % Hydrotrope required to compatibilize phases [4, 20]: 79%
Wt % Castor oil (at compatibilization) [4, 21]: 5%
Wt % Hydrotrope required to compatibilize phases [4, 21]: 82%
Wt % Castor oil (at compatibilization) [4, 22]: 2%
Wt % Hydrotrope required to compatibilize phases [4, 22]: 84%
Cloudiness on heating [1]: showed no signs of cloudiness
Cloud point [1]: >100 °C
Wt % Hydrotrope required to compatibilize the phases [5, 23]: 58%
Wt % Soy Methyl Esters (at compatibilization) [5, 23]: 38%
Wt % Hydrotrope required to compatibilize the phases [5, 24]: 73%
Wt % Soy Methyl Esters (at compatibilization) [5, 24]: 19%
Wt % Hydrotrope required to compatibilize the phases [5, 25]: 81%
Wt % Soy Methyl Esters (at compatibilization) [5, 25]: 10%
Wt % Hydrotrope required to compatibilize the phases [5, 26]: 83%
Wt % Soy Methyl Esters (at compatibilization) [5, 26]: 5%
Wt % Hydrotrope required to compatibilize the phases [5, 27]: 81%
Wt % Soy Methyl Esters (at compatibilization) [5, 27]: 2%
Wt % Hydrotrope required to compatibilize phases [2, 8]: 31%
Wt % Octanoic Acid (resulting, at compatibilization) [2, 8]: 62%
Wt % Hydrotrope required to compatibilize phases [2, 9]: 53%
Wt % Octanoic Acid (resulting, at compatibilization) [2, 9]: 33%
Wt % Hydrotrope required to compatibilize phases [2, 10]: 54%
Wt % Octanoic Acid (resulting, at compatibilization) [2, 10]: 23%
Wt % Hydrotrope required to compatibilize phases [2, 11]: 55%
Wt % Octanoic Acid (resulting, at compatibilization) [2, 11]: 14%
Wt % Hydrotrope required to compatibilize phases [2, 12]: 46%
Wt % Octanoic Acid (resulting, at compatibilization) [2, 12]: 5%
Amount of hydrotrope that produced a single phase [2, 13]: 2.27 grams
Amount of hydrotrope that produced a single phase [2, 14]: 5.63 grams
Amount of hydrotrope that produced a single phase [2, 15]: 11.81 grams
Amount of hydrotrope that produced a single phase [2, 16]: 6.07 grams
Amount of hydrotrope that produced a single phase [2, 17]: 4.33 grams
Freeze-thaw visual observation ([3]; Cycle 1): stable;
Freeze-thaw visual observation ([3]; Cycle 2): gradient;
Freeze-thaw visual observation ([3]; Cycle 3): gradient;
Compound: CC1COC(C)(CCCO)O1 (centres unmarked) [Ketal alcohol (1a)]
Freeze-thaw performance overall ([3]; formulation containing the solvent, 3 cycles): performed similarly to or better than the 2-butoxyethanol

Compound: CCOC(=O)CCC1(C)OCC(CO)O1 (centres unmarked) [Ketal alcohol (1a)]
pH stability of the formulation containing the solvent [6]: maintained the same pH as the formulation containing 2-butoxyethanol and the control formulation

Wt % Castor oil (at compatibilization) [4, 18]: 40%
Wt % Hydrotrope required to compatibilize phases [4, 18]: 55%
Wt % Castor oil (at compatibilization) [4, 19]: 22%
Wt % Hydrotrope required to compatibilize phases [4, 19]: 69%
Wt % Castor oil (at compatibilization) [4, 20]: 10%
Wt % Hydrotrope required to compatibilize phases [4, 20]: 79%
Wt % Castor oil (at compatibilization) [4, 21]: 5%
Wt % Hydrotrope required to compatibilize phases [4, 21]: 82%
Wt % Castor oil (at compatibilization) [4, 22]: 2%
Wt % Hydrotrope required to compatibilize phases [4, 22]: 84%
Wt % Hydrotrope required to compatibilize the phases [5, 23]: 54%
Wt % Soy Methyl Esters (at compatibilization) [5, 23]: 41%
Wt % Hydrotrope required to compatibilize the phases [5, 24]: 74%
Wt % Soy Methyl Esters (at compatibilization) [5, 24]: 18%
Wt % Hydrotrope required to compatibilize the phases [5, 25]: 78%
Wt % Soy Methyl Esters (at compatibilization) [5, 25]: 11%
Wt % Hydrotrope required to compatibilize the phases [5, 26]: 80%
Wt % Soy Methyl Esters (at compatibilization) [5, 26]: 6%
Wt % Hydrotrope required to compatibilize the phases [5, 27]: 77%
Wt % Soy Methyl Esters (at compatibilization) [5, 27]: 2%
Wt % Hydrotrope required to compatibilize phases [2, 8]: 18%
Wt % Octanoic Acid (resulting, at compatibilization) [2, 8]: 74%
Wt % Hydrotrope required to compatibilize phases [2, 9]: 37%
Wt % Octanoic Acid (resulting, at compatibilization) [2, 9]: 44%
Wt % Hydrotrope required to compatibilize phases [2, 10]: 39%
Wt % Octanoic Acid (resulting, at compatibilization) [2, 10]: 31%
Wt % Hydrotrope required to compatibilize phases [2, 11]: 37%
Wt % Octanoic Acid (resulting, at compatibilization) [2, 11]: 19%
Wt % Hydrotrope required to compatibilize phases [2, 12]: 36%
Wt % Octanoic Acid (resulting, at compatibilization) [2, 12]: 6%
Amount of hydrotrope that produced a single phase [2, 13]: 1.12 grams
Amount of hydrotrope that produced a single phase [2, 14]: 2.95 grams
Amount of hydrotrope that produced a single phase [2, 15]: 3.14 grams
Amount of hydrotrope that produced a single phase [2, 16]: 2.97 grams
Amount of hydrotrope that produced a single phase [2, 17]: 2.87 grams
Compound: CCO [ethanol]

Compound: Nc1ccc(N)cc1 [p-phenylene diamine]
Ketal Alcohol (1a) Solubility ([7]; Table 15, weight percentage active 1%): insoluble
Ketal Alcohol (1a) Solubility ([7]; weight percentage active 1%, 80° C. 10 minutes, shaking, room temperature 24 hours): soluble
EtLGK Solubility ([7]; weight percentage active 5% in EtLGK): soluble
Ketal Alcohol (1a) Solubility ([7]; weight percentage active 5%, 80° C. 10 minutes, shaking, room temperature 24 hours): soluble
Ketal Alcohol (1a) Solubility ([7]; weight percentage active 10%, 80° C. 10 minutes, shaking, room temperature 24 hours): insoluble

Compound: Sodium xylene-sulfonate [Sodium xylene-sulfonate (SXS) (40%)]
Compatibilization of water and castor oil [4, 28]: *The sodium xylenesulfonate did not compatibilize at any measured level (up to >95%).
Compatibilization of water and soy methyl esters [5, 28]: *The sodium xylenesulfonate did not compatibilize at any measured level (up to >95%).
Wt % Hydrotrope required to compatibilize phases [2, 8]: 13%
Wt % Octanoic Acid (resulting, at compatibilization) [2, 8]: 61%
Wt % Hydrotrope required to compatibilize phases [2, 9]: 16%
Wt % Octanoic Acid (resulting, at compatibilization) [2, 9]: 43%
Wt % Hydrotrope required to compatibilize phases [2, 10]: 17%
Wt % Octanoic Acid (resulting, at compatibilization) [2, 10]: 29%
Wt % Hydrotrope required to compatibilize phases [2, 11]: 17%
Wt % Octanoic Acid (resulting, at compatibilization) [2, 11]: 18%
Wt % Hydrotrope required to compatibilize phases [2, 12]: 16%
Wt % Octanoic Acid (resulting, at compatibilization) [2, 12]: 6%
Amount of hydrotrope that produced a single phase [2, 13]: 2.32 grams
Amount of hydrotrope that produced a single phase [2, 14]: 3.23 grams
Amount of hydrotrope that produced a single phase [2, 15]: 7.4 grams
Amount of hydrotrope that produced a single phase [2, 16]: 3.55 grams
Amount of hydrotrope that produced a single phase [2, 17]: 3.33 grams
